Data as given in publication PMC12217463, “Functional and structural analyses of amino acid sequence variation in PDC β-lactamase reveal different mechanistic pathways toward cefiderocol resistance in Pseudomonas aeruginosa” (Antimicrobial Agents and Chemotherapy, 2025).
In brackets after ≈: the same amount, converted by molar mass.

How the values were obtained:
[1] = test system: PAO1 + blaPDC E219K; assay: MIC, broth microdilution; format: cell-based; conditions: Pseudomonas aeruginosa
Description: (§1) We took advantage of a previously constructed and characterized laboratory collection of recombinant P. aeruginosa PAO1 isolates expressing different blaPDC variants, but specifically enriched for this work with additional variants, following the previously described methodology ([17]). […] The final collection comprised 40 recombinant isolates (20 in PAO1 and 20 in PAO ΔpiuC) producing the wild-type PDC-1 variant from PAO1 and 19 derivatives carrying specific amino acid substitutions previously associated with the development of resistance to ceftazidime/avibactam, ceftolozane/tazobactam, or cefiderocol: T70I, F121L, P153L, G156D, A200T, G202S, ΔG202-E219, G214R, P215L, P215S, ΔP215-G222, D217N, E219K, E219G, E219D, S226ins, L293P, F121L + E219K, and F121L + G222S.
(§2) The MICs of ceftazidime, ceftazidime/avibactam, ceftolozane/tazobactam, cefepime, and cefiderocol were determined in triplicate, for all isolates, by reference broth microdilution assays. Avibactam and tazobactam were fixed at 4 mg/L. All assays were performed using cation-adjusted Mueller-Hinton broth (CAMHB), except for cefiderocol, which was determined in all cases using iron-depleted CAMHB, prepared according to CLSI M100 guidelines ([40]). EUCAST v.15.0 clinical breakpoints and guidelines (http://www.eucast.org/clinical_breakpoints/) were used for reference purposes. Reference strains Escherichia coli ATCC 25922, Klebsiella pneumoniae ATCC 700603, and P. aeruginosa ATCC 27853 were used as controls.

[2] = test system: PAO1 + blaPDC F121L + E219K; assay: MIC, broth microdilution; format: cell-based; conditions: Pseudomonas aeruginosa
Description: as §1, §2

[3] = test system: PAO1 + blaPDC G156D; assay: MIC, broth microdilution; format: cell-based; conditions: Pseudomonas aeruginosa
Description: as §1, §2

[4] = test system: PAO1 + blaPDC G202S; assay: MIC, broth microdilution; format: cell-based; conditions: Pseudomonas aeruginosa
Description: as §1, §2

[5] = test system: PAO1 + blaPDC G214R; assay: MIC, broth microdilution; format: cell-based; conditions: Pseudomonas aeruginosa
Description: as §1, §2

[6] = test system: PAO1 + blaPDC P153L; assay: MIC, broth microdilution; format: cell-based; conditions: Pseudomonas aeruginosa
Description: as §1, §2

[7] = test system: PAO1 + blaPDC P215L; assay: MIC, broth microdilution; format: cell-based; conditions: Pseudomonas aeruginosa
Description: as §1, §2

[8] = test system: PAO1 + blaPDC P215S; assay: MIC, broth microdilution; format: cell-based; conditions: Pseudomonas aeruginosa
Description: as §1, §2

[9] = test system: PAO1 + blaPDC S226ins; assay: MIC, broth microdilution; format: cell-based; conditions: Pseudomonas aeruginosa, avibactam and tazobactam fixed at 4 mg/L, FDC in iron-depleted CAMHB
Description: as §1, §2

[10] = test system: PAO1 + blaPDC ∆P215-G222; assay: MIC, broth microdilution; format: cell-based; conditions: Pseudomonas aeruginosa, avibactam and tazobactam fixed at 4 mg/L, FDC in iron-depleted CAMHB
Description: as §1, §2

[11] = test system: PAO1 + blaPDC-1 (WT); assay: MIC, broth microdilution; format: cell-based; conditions: Pseudomonas aeruginosa, avibactam and tazobactam fixed at 4 mg/L, FDC in iron-depleted CAMHB
Description: as §1, §2

[12] = test system: PAO1 + blaPDC F121L + G220S; assay: MIC, broth microdilution; format: cell-based; conditions: Pseudomonas aeruginosa
[13] = test system: PAO1 producing the Ω-loop variants ∆P215-G222, E219K, and F121L + E219K; assay: MIC, group of Ω-loop variants in PAO1; format: cell-based; conditions: Pseudomonas aeruginosa; range over PAO1 producing ∆P215-G222, E219K and F121L + E219K
Description: as §1
as §2, with “Reference strains Escherichia coli ATCC 25922, Klebsiella pneumoniae ATCC 700603, and P. aeruginosa ATCC 27853 were used as controls.” left out

[14] = test system: PAO ΔpiuC producing the ∆P215-G222, E219K, F121L + E219K, and L293P variants; assay: MIC, group of variants in PAO ΔpiuC; format: cell-based; conditions: Pseudomonas aeruginosa
Description: as §1
as §2, with “Reference strains Escherichia coli ATCC 25922, Klebsiella pneumoniae ATCC 700603, and P. aeruginosa ATCC 27853 were used as controls.” left out

[15] = test system: E219K or L293P substitutions combined with inactivating mutations affecting iron uptake (∆piuC); assay: MIC, E219K or L293P with impaired iron uptake; format: cell-based; conditions: Pseudomonas aeruginosa
Description: as §1
as §2, with “Reference strains Escherichia coli ATCC 25922, Klebsiella pneumoniae ATCC 700603, and P. aeruginosa ATCC 27853 were used as controls.” left out

[16] = test system: P. aeruginosa isolates overproducing PDC variants; conditions: clinical strains, values generally remain below; cited from earlier work

With `CC(C)(O/N=C(\C(=O)N[C@@H]1C(=O)N2C(C(=O)[O-])=C(C[N+]3(CCNC(=O)c4ccc(O)c(O)c4Cl)CCCC3)CS[C@H]12)c1csc(N)n1)C(=O)O` [FDC, cefiderocol] the MIC [1] was 4 µg/mL (≈ 5.32 µM), the MIC [2] was 4 µg/mL (≈ 5.32 µM) and the MIC [3] was 0.5 µg/mL (≈ 0.665 µM). For the same compound, the MIC [4] was 0.5 µg/mL (≈ 0.665 µM), the MIC [5] was 1 µg/mL (≈ 1.33 µM) and the MIC [6] was 0.5 µg/mL (≈ 0.665 µM). For the same compound, the MIC [7] was 0.5 µg/mL (≈ 0.665 µM), the MIC [8] was 0.5 µg/mL (≈ 0.665 µM) and the MIC [9] was 0.5 µg/mL. For the same compound, the MIC [10] was 2 µg/mL, the MIC [11] was 0.25 µg/mL and the MIC [12] was 0.25 µg/mL (≈ 0.332 µM). For the same compound, the MIC [13] was 2 to 4 µg/mL, the MIC [14] was 32 to 64 µg/mL (≈ 42.5 to 85.1 µM) and the MIC [15] was ≥ 32 µg/mL. The MIC [16] was “below 2 mg/L”.
